Measured values as given in patent US12551573B2, “Compositions and methods for the targeting of PCSK9” (Scribe Therapeutics Inc., priority 2022, dated 2026).

Tested on: human PCSK9 locus
Assay: Secreted PCSK9 by ELISA (normalized to total cell count) in Huh7 cells transfected with mRNA and gRNA
Assay type: cell-based
Details: paired with LTRP5-ADD-ZIM3 mRNA; for Secreted PCSK9 / Percent reduction in PCSK9 secretion / Average percent reduction in PCSK9 secretion: Huh7 cells, 6 days post-transfection; for Secreted PCSK9: normalized to total cell count; for Percent reduction in PCSK9 secretion: relative to non-targeting gRNA control; for Average percent reduction in PCSK9 secretion: averaged from the two doses
Summary of the method: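 Huh7 cells were transfected with CasX or epigenetic-editor mRNA plus PCSK9- or B2M-targeting gRNA (scaffold 316). In one screen, LTRP5-ADD-ZIM3 mRNA:gRNA was given at 50:25 or 25:12.5 ng by Lipofectamine 3000. Secreted PCSK9 was measured by ELISA in supernatant 4-87 days post-transfection and normalized to total cell count.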

## TG-06-348 (guide AGGCAUUCACUCCUUCACCC; listed as RNA, chemistry not given here)
25 ng mRNA:12.5 ng gRNA
  Secreted PCSK9: 35.55 ng/mL
  Percent reduction in PCSK9 secretion: 50.1%
50 ng mRNA:25 ng gRNA
  Secreted PCSK9: 23.14 ng/mL
  Percent reduction in PCSK9 secretion: 71.88%
  Average percent reduction in PCSK9 secretion: 60.99%

## TG-06-349 (guide CUGUGCCUGGUGCAGUUCCC; listed as RNA, chemistry not given here)
25 ng mRNA:12.5 ng gRNA
  Secreted PCSK9: 87.55 ng/mL
  Percent reduction in PCSK9 secretion: 22.89%
50 ng mRNA:25 ng gRNA
  Secreted PCSK9: 91.34 ng/mL
  Percent reduction in PCSK9 secretion: 11.02%
  Average percent reduction in PCSK9 secretion: 16.95%

## TG-06-350 (guide GUGUCAUAAAGAAAUUGCCU; listed as RNA, chemistry not given here)
25 ng mRNA:12.5 ng gRNA
  Secreted PCSK9: 67.87 ng/mL
  Percent reduction in PCSK9 secretion: 4.74%
50 ng mRNA:25 ng gRNA
  Secreted PCSK9: 71.25 ng/mL
  Percent reduction in PCSK9 secretion: 13.4%
  Average percent reduction in PCSK9 secretion: 9.07%

## TG-06-351 (guide UUAUGACACAGAACUCAUGC; listed as RNA, chemistry not given here)
25 ng mRNA:12.5 ng gRNA
  Secreted PCSK9: 62.93 ng/mL
  Percent reduction in PCSK9 secretion: 11.67%
50 ng mRNA:25 ng gRNA
  Secreted PCSK9: 56.34 ng/mL
  Percent reduction in PCSK9 secretion: 31.52%
  Average percent reduction in PCSK9 secretion: 21.6%

## TG-06-352: PCSK9-targeting TTC spacer positioned beyond the 1100 bp TSS-proximal window (Table 17) (guide UCCCUCACCAAUUACCCCUC; listed as RNA, chemistry not given here)
Huh7, scaffold 316, compared to spacer 6.1 paired with CasX 676
  secreted PCSK9: sustained repression through day 36: effective repression through day 36

## TG-06-1046 (guide UCUCUUACAUGGGGGGAAAC; listed as RNA, chemistry not given here)
25 ng mRNA:12.5 ng gRNA
  Secreted PCSK9: 76.27 ng/mL
  Percent reduction in PCSK9 secretion: 7.05%
50 ng mRNA:25 ng gRNA
  Secreted PCSK9: 78.9 ng/mL
  Percent reduction in PCSK9 secretion: 4.1%
  Average percent reduction in PCSK9 secretion: 1.48%

## UCCCAGUAUCGACAGCCCUU (listed as RNA, chemistry not given here) [spacer 6.123, Promoter]
25 ng mRNA:12.5 ng gRNA
  Secreted PCSK9: 51.32 ng/mL
  Percent reduction in PCSK9 secretion: 27.97%
50 ng mRNA:25 ng gRNA
  Secreted PCSK9: 30.49 ng/mL
  Percent reduction in PCSK9 secretion: 62.95%
  Average percent reduction in PCSK9 secretion: 45.46%

## UCCCUCUGCGCGUAAUCUGA (listed as RNA, chemistry not given here) [spacer 6.150, Promoter]
25 ng mRNA:12.5 ng gRNA
  Secreted PCSK9: 39.59 ng/mL
  Percent reduction in PCSK9 secretion: 44.42%
50 ng mRNA:25 ng gRNA
  Secreted PCSK9: 18.33 ng/mL
  Percent reduction in PCSK9 secretion: 77.73%
  Average percent reduction in PCSK9 secretion: 61.08%

## UCCUCCUGCCUGGUACACAA (listed as RNA, chemistry not given here) [spacer 6.127, Promoter]
25 ng mRNA:12.5 ng gRNA
  Secreted PCSK9: 49.1 ng/mL
  Percent reduction in PCSK9 secretion: 31.08%
50 ng mRNA:25 ng gRNA
  Secreted PCSK9: 22.57 ng/mL
  Percent reduction in PCSK9 secretion: 72.56%
  Average percent reduction in PCSK9 secretion: 51.82%

## UCGGCCUCCGGGUCUCCCAA (listed as RNA, chemistry not given here) [spacer 6.170, Intron 1]
25 ng mRNA:12.5 ng gRNA
  Secreted PCSK9: 72.96 ng/mL
  Percent reduction in PCSK9 secretion: 2.41%
50 ng mRNA:25 ng gRNA
  Secreted PCSK9: 64.19 ng/mL
  Percent reduction in PCSK9 secretion: 21.98%
  Average percent reduction in PCSK9 secretion: 9.79%

## UGAACAUGGUGUGUAAAAGG (listed as RNA, chemistry not given here) [spacer 6.131, Promoter]
25 ng mRNA:12.5 ng gRNA
  Secreted PCSK9: 57.89 ng/mL
  Percent reduction in PCSK9 secretion: 18.74%
50 ng mRNA:25 ng gRNA
  Secreted PCSK9: 28.4 ng/mL
  Percent reduction in PCSK9 secretion: 65.48%
  Average percent reduction in PCSK9 secretion: 42.11%

## UGGGUCCACCUUGUCUCCUG (listed as RNA, chemistry not given here) [spacer 6.145, Promoter]
25 ng mRNA:12.5 ng gRNA
  Secreted PCSK9: 18.54 ng/mL
  Percent reduction in PCSK9 secretion: 73.98%
50 ng mRNA:25 ng gRNA
  Secreted PCSK9: 15.8 ng/mL
  Percent reduction in PCSK9 secretion: 80.8%
  Average percent reduction in PCSK9 secretion: 77.39%

## UUCCACUGGCCUUAACCUGG (listed as RNA, chemistry not given here) [spacer 6.142, Promoter]
25 ng mRNA:12.5 ng gRNA
  Secreted PCSK9: 27.27 ng/mL
  Percent reduction in PCSK9 secretion: 61.73%
50 ng mRNA:25 ng gRNA
  Secreted PCSK9: 30.87 ng/mL
  Percent reduction in PCSK9 secretion: 62.48%
  Average percent reduction in PCSK9 secretion: 62.1%

## UUUUACACACCAUGUUCAAG (listed as RNA, chemistry not given here) [spacer 6.129, Promoter]
25 ng mRNA:12.5 ng gRNA
  Secreted PCSK9: 90.82 ng/mL
  Percent reduction in PCSK9 secretion: 27.47%
50 ng mRNA:25 ng gRNA
  Secreted PCSK9: 59.93 ng/mL
  Percent reduction in PCSK9 secretion: 27.16%
  Average percent reduction in PCSK9 secretion: 0.16%
